Measurements published in US8618290B2, “HSP90 inhibitors” (Takeda Pharmaceutical Company Limited, priority 2008, dated 2013).

Target: human HSP90a (recombinant N-terminal nucleotide binding domain) (Homo sapiens (Human), UniProt P07900)
Assay: Competition fluorescence polarization binding assay with TSD-FP probe
Details: method of Example A-1; incubation time not stated; read-out: Binding Affinity IC50
Description: The reaction can be followed kinetically using fluorescence (excitation λ=485 nm; emission λ=538 nm). The binding affinity of the test compound to HSP90 is determined by the changes in the polarized fluorescence; the intensity of the polarized fluorescence is proportional to the fraction of bound probe. A novel small molecule fluorescence probe, (S,E)-5-(2-(2-amino-7-(4-fluoro-2-(6-methoxypyridin-2-yl)phenyl)-4-methyl-7,8-dihydroquinazolin-5(6H)-ylideneaminooxy)ethylcarbamoyl)-2-(6-hydroxy-3-oxo-3H-xanthen-9-yl)benzoic acid (TSD-FP probe) was specifically developed for the assay. Inhibition constants (IC50) may be calculated by non-linear curve fitting of the compound concentrations and fluorescence intensities to the standard IC50 equation.
The sequence of human wild-type HSP90a is well known in the art; see, Chen B. et al. Genomics 2005.86:627-637. The gene encoding HSP90a can be isolated from RNA, cDNA or cDNA libraries. In this case, the gene encoding residues 9-236 of image clone 5270926 of HSP90α (ATCC) was isolated. This portion of the gene encoding a section of human HSP90a that includes the N-terminal nucleotide binding domain of human HSP90a was cloned into pET28a vector (Novagen). The DNA sequence of the vector is shown in SEQ ID NO: 1. Expression from this vector produced a protein consisting of the recombinant N-terminal nucleotide binding domain of HSP90a with a cleavable 6′-histidine tag and a cleavage site at the N-terminus The amino acid sequence of this recombinant protein is shown in SEQ ID NO: 2.
Recombinant human N-terminal truncated His6-HSP90a was expressed in E. coli (BL21) cells with IPTG induction. Cell paste from 24×60 mL tubes (grown in a multi-tube airlift fermentor) was lysed using an automated sample lyser. Briefly, the pellet in each tube was suspended in 21 mL of lysis buffer consisting of 50 mM Tris pH 7.9, 50 mM NaCl, 1 mM MgCl2, 0.6 g/L Lysozyme (Sigma), 100 μL/L Benzonase (Novagen). […] After incubation, 5 M NaCl was added to bring the final salt concentration to 400 mM. The tubes were sonicated for 50 seconds and then centrifuged at 3400 rpm for 50 min. The supernatants were pooled and 4 ml of ProBond Ni resin (Invitrogen) was added. After at least 30 minutes, the resin was spun down, washed with 25 mM Tris pH 7.6, 400 mM NaCl, 20 mM imidazole, poured into a column and washed with 10 column volumes of the same buffer. The protein was eluted from the column using 3 column volumes of 25 mM Tris pH 7.6, 400 mM NaCl, 400 mM imidazole. The eluate was loaded onto a Supedex 200 column (GE Healthcare) equilibrated with 25 mM Tris pH 7.6, 250 mM NaCl, 0.25 mM TCEP, 1 mM EDTA and peak fractions were pooled and concentrated to ˜6 mg/mL using 10 kDA MWCO centrifugal concentrators (Millipore). Aliquots were flash frozen in liquid nitrogen and stored at −80° C. All purification was done at 4° C.
A fluorescein labeled small molecule was designed and synthesized as a probe (TSD-FP probe) for the determination of the binding affinity of the test compound to HSP90 proteins. The synthesis of the small molecule, (S,E)-2-amino-7-(4-fluoro-2-(6-methoxypyridin-2-yl)phenyl)-4-methyl-7,8-dihydroquinazolin-5(6H)-one O-2-aminoethyl oxime (Compound 24) was described in Examples 24 and 25 above. The TSD-FP probe was prepared according to the following procedure:
The inhibitory effect of the compounds of the invention against HSP90a was determined by fluorescence polarization assay. The assay was run in a black 384-well-plate and in an assay buffer comprising 25 mM Hepes pH 7.3, 150 mM NaCl, 0.1 mM EDTA, 0.01% Brij35, 1 mM DTT.
To each test well, an aliquot of buffer, 2 μl of test compound in 10% DMSO, 4 μl of 6.25 nM of TSD FP probe, 4 μl of 12.5 nM of purified HSP90a protein were added. […] For negative control, no inhibitor was added.

Row | IC50 [nM] | SMILES
1 | 8 | COc1cccc(-c2cc(F)ccc2[C@H]2Cc3nc(N)nc(C)c3/C(=N/OCC(=O)N(C)C)N2)n1 [Compound 83, (R,Z)-2-(2-amino-7-(4-fluoro-2-(6-methoxypyridin-2-yl)phenyl)-4-methyl-7,8-dihydropyrido[4,3-d]pyrimidin-5(6H)-ylideneaminooxy)-N,N-dimethylacetamide]
2 | 5 | COc1cccc(-c2cc(F)ccc2[C@H]2Cc3nc(N)nc(C)c3/C(=N/OC3C[C@@H](O)[C@@H](O)C3)N2)n1 (stereo partly drawn) [Compound 58, (7R,Z)-2-amino-7-(4-fluoro-2-(6-methoxypyridin-2-yl)phenyl)-4-methyl-7,8-dihydropyrido[4,3-d]pyrimidin-5(6H)-one O-(3R,4S)-3,4-dihydroxycyclopentyl oxime]
3 | 10 | COc1cccc(-c2cc(F)ccc2[C@H]2Cc3nc(N)nc(C)c3/C(=N/OC[C@H]3O[C@@H](OC)[C@H](O)[C@@H]3O)N2)n1 (mixture of isomers) [Compound 45, (R,Z)-2-amino-7-(4-fluoro-2-(6-methoxypyridin-2-yl)phenyl)-4-methyl-7,8-dihydropyrido[4,3-d]pyrimidin-5(6H)-one O-((2R,3S,4R,5R)-3,4-dihydroxy-5-methoxytetrahydrofuran-2-yl)methyl oxime]
4 | 8 | COc1cccc(-c2cc(F)ccc2[C@H]2Cc3nc(N)nc(C)c3/C(=N/OCC(=O)N(C)CCO)N2)n1 [Compound 99, (R,Z)-2-(2-amino-7-(4-fluoro-2-(6-methoxypyridin-2-yl)phenyl)-4-methyl-7,8-dihydropyrido[4,3-d]pyrimidin-5(6H)-ylideneaminooxy)-N-(2-hydroxyethyl)-N-methylacetamide]
5 | 8 | COc1cccc(-c2cc(F)ccc2[C@H]2Cc3nc(N)nc(C)c3/C(=N/OCC3C[C@@H](O)[C@@H](O)C3)N2)n1 (stereo partly drawn) [Compound 59, (7R,Z)-2-amino-7-(4-fluoro-2-(6-methoxypyridin-2-yl)phenyl)-4-methyl-7,8-dihydropyrido[4,3-d]pyrimidin-5(6H)-one O-((3R,4S)-3,4-dihydroxycyclopentyl)methyl oxime]
6 | 4 | COc1cccc(-c2cc(F)ccc2[C@H]2Cc3nc(N)nc(C)c3/C(=N/OCC(=O)N3CC[C@@H](F)C3)N2)n1 [Compound 85, 2-((Z)—((R)-2-amino-7-(4-fluoro-2-(6-methoxypyridin-2-yl)phenyl)-4-methyl-7,8-dihydropyrido[4,3-d]pyrimidin-5(6H)-ylidene)aminooxy)-1-((R)-3-fluoropyrrolidin-1-yl)ethanone]
7 | 4 | COc1cccc(-c2cc(F)ccc2[C@H]2Cc3nc(N)nc(C)c3/C(=N/OCCCO)N2)n1 [Compound 78, (R,Z)-2-amino-7-(4-fluoro-2-(6-methoxypyridin-2-yl)phenyl)-4-methyl-7,8-dihydropyrido[4,3-d]pyrimidin-5(6H)-one O-3-hydroxypropyl oxime]
8 | 3 | COc1cccc(-c2cc(F)ccc2[C@H]2Cc3nc(N)nc(C)c3/C(=N/O)N2)n1 [Compound 61, (R,Z)-2-amino-7-(4-fluoro-2-(6-methoxypyridin-2-yl)phenyl)-4-methyl-7,8-dihydropyrido[4,3-d]pyrimidin-5(6H)-one oxime]
9 | 13 | COc1cccc(-c2cc(F)ccc2[C@H]2Cc3nc(N)nc(C)c3/C(=N/OCC(=O)N(C)C[C@H](O)CO)N2)n1 [Compound 96, 2-((Z)—((R)-2-amino-7-(4-fluoro-2-(6-methoxypyridin-2-yl)phenyl)-4-methyl-7,8-dihydropyrido[4,3-d]pyrimidin-5(6H)-ylidene)aminooxy)-N—((S)-2,3-dihydroxypropyl)-N-methylacetamide]
10 | 6 | COc1cccc(-c2cc(F)ccc2[C@H]2Cc3nc(N)nc(C)c3/C(=N/OCCCCO)N2)n1 [Compound 79, (R,Z)-2-amino-7-(4-fluoro-2-(6-methoxypyridin-2-yl)phenyl)-4-methyl-7,8-dihydropyrido[4,3-d]pyrimidin-5(6H)-one O-4-hydroxybutyl oxime]
11 | 8 | COc1cccc(-c2cc(F)ccc2[C@H]2Cc3nc(N)nc(C)c3/C(=N/O[C@@H](CCO)C(=O)N(C)C)N2)n1 [Compound 93, (S)-2-((Z)—((R)-2-amino-7-(4-fluoro-2-(6-methoxypyridin-2-yl)phenyl)-4-methyl-7,8-dihydropyrido[4,3-d]pyrimidin-5(6H)-ylidene)aminooxy)-4-hydroxy-N,N-dimethylbutanamide]
12 | 6 | COc1cccc(-c2cc(F)ccc2[C@H]2Cc3nc(N)nc(C)c3/C(=N/OCC[C@H](O)CO)N2)n1 [Compound 37, (R,Z)-2-amino-7-(4-fluoro-2-(6-methoxypyridin-2-yl)phenyl)-4-methyl-7,8-dihydropyrido[4,3-d]pyrimidin-5(6H)-one O—(S)-3,4-dihydroxybutyl oxime]

Row | SMILES | IC50 [nM]
13 | COc1cccc(-c2cc(F)ccc2[C@H]2Cc3nc(N)nc(C)c3/C(=N/OC[C@H](O)CO)N2)n1 [Compound 33, (R,Z)-2-Amino-7-(4-fluoro-2-(6-methoxypyridin-2-yl)phenyl)-4-methyl-7,8-dihydropyrido[4,3-d]pyrimidin-5(6H)-one O—(R)-2,3-dihydroxypropyl oxime] | 4
14 | COc1cccc(-c2cc(F)ccc2[C@H]2Cc3nc(N)nc(C)c3/C(=N/OCC3CCC(O)CC3)N2)n1 (stereo partly drawn) [Compound 65, (R,Z)-2-amino-7-(4-fluoro-2-(6-methoxypyridin-2-yl)phenyl)-4-methyl-7,8-dihydropyrido[4,3-d]pyrimidin-5(6H)-one O-((1s,4S)-4-hydroxycyclohexyl)methyl oxime] | 10
15 | COc1cccc(-c2cc(F)ccc2[C@H]2Cc3nc(N)nc(C)c3/C(=N/OCC(CO)CO)N2)n1 [Compound 35, (R,Z)-2-Amino-7-(4-fluoro-2-(6-methoxypyridin-2-yl)phenyl)-4-methyl-7,8-dihydropyrido[4,3-d]pyrimidin-5(6H)-one O-3-hydroxy-2-(hydroxymethyl)propyl oxime] | 13
